Reference: patent US20250092039A1, “GLUTARIMIDE-CONTAINING PAN-KRAS-MUTANT DEGRADER COMPOUNDS AND USES THEREOF” (Tiger Biotherapeutics Inc., priority 2022, published 2025)

Key:
KRAS-G12V/RAF1 = KRAS-G12V/RAF1 (Homo sapiens (Human), UniProt P01116, G12V); experiment: KRAS/RAF1 binding inhibition assay (AlphaScreen)
Method in brief: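 IC50 comes from variable-slope nonlinear fits of % inhibition (relative to DMSO) against inhibitor concentration. The AlphaScreen signal tracks the interaction of GppNHp-bound KRAS G12V with the RAF1 RBD after 60 min at 4° C with compound in 2% DMSO final.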

KRAS G12V = KRAS G12V (Homo sapiens (Human), UniProt P01116, G12V); experiment: KRAS G12V degradation in SW620 cells (Western blot, DC50); format: cell-based; conditions: 24 hours
Method in brief: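 KRAS levels were quantified by fluorescent Western blot as percent of the DMSO control after 24 h of compound exposure at 37° C in homozygous KRAS G12V SW620 cells. A four-parameter variable-slope fit of the dose-response gave the half-maximal degradation concentration.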

SW620 cells = experiment: 3D cell growth inhibition of SW620 cells carrying endogenous KRAS G12V mutation (CellTiter-Glo 3D, GI50); format: cell-based; conditions: Homo sapiens, SW-620, 144 h; SW620 cells, 6 days; read-out: SW620 3D cell growth GI50
Method in brief: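 […], compound exposure lasted 6 days at 37° C, added the day after plating from DMSO stocks over a concentration range. Cells: SW620, KRAS G12V, 3D culture.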

Sequence of KRAS-G12V/RAF1 (P01116-2 other isoform, or with tags, fused parts or gaps G12V): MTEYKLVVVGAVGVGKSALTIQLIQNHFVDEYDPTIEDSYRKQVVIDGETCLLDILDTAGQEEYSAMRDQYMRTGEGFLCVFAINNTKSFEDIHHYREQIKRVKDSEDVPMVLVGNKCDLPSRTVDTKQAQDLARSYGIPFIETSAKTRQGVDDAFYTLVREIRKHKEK
Sequence of KRAS G12V (P01116-2 other isoform, or with tags, fused parts or gaps G12V): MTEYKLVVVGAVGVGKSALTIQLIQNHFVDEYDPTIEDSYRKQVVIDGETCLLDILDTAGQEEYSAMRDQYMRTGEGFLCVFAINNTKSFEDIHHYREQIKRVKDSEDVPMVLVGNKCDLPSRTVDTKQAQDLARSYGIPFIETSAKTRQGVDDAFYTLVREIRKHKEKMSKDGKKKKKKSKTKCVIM

Row | SMILES | IC50 (KRAS-G12V/RAF1) | DC50 (KRAS G12V) | GI50 (SW620 cells) | DC50 (KRAS G12V; cell prints a figure, not a class symbol)
1 | CCc1c(F)ccc2cc(N)cc(-c3ncc4c(N5CCC[C@@](C)(O)C5)nc(OCC5(CN6CCC7(CC6)CC(CN6CCN(c8ccc9c(c8)CN([C@H]8CCC(=O)NC8=O)C9=O)CC6)C7)CC5)nc4c3F)c12 [Compound 88, (S)-3-(5-(4-((7-((1-(((7-(3-amino-8-ethyl-7-fluoronaphthalen-1-yl)-8-fluoro-4-((R)-3-hydroxy-3-methylpiperidin-1-yl)pyrido[4,3-d]pyrimidin-2-yl)oxy)methyl)cyclopropyl)methyl)-7-azaspiro[3.5]nonan-2-yl)methyl)piperazin-1-yl)-1-oxoisoindolin-2-yl)piperidine-2,6-dione] | > 200 nM | > 100 nM | 10 to 100 nM | –
2 | CCc1c(F)ccc2cc(N)cc(-c3ncc4c(N5CCC[C@@](C)(O)C5)nc(OCC5(CN6CCC(CN7CCN(c8ccc9c(c8)CN([C@H]8CCC(=O)NC8=O)C9=O)CC7)CC6)CC5)nc4c3F)c12 [Compound 89, (S)-3-(5-(4-((1-((1-(((7-(3-amino-8-ethyl-7-fluoronaphthalen-1-yl)-8-fluoro-4-((R)-3-hydroxy-3-methylpiperidin-1-yl)pyrido[4,3-d]pyrimidin-2-yl)oxy)methyl)cyclopropyl)methyl)piperidin-4-yl)methyl)piperazin-1-yl)-1-oxoisoindolin-2-yl)piperidine-2,6-dione] | > 200 nM | > 100 nM | > 100 nM | –
3 | CCc1c(F)ccc2cc(O)cc(-c3ncc4c(N5C[C@@H]6C[C@H](C5)[C@H](O)C6)nc(OCC5(CN6CCC7(CC6)CC(CN6CCN(c8ccc9c(c8)CN([C@H]8CCC(=O)NC8=O)C9=O)CC6)C7)CC5)nc4c3F)c12 [Compound 90, (S)-3-(5-(4-((7-((1-(((7-(8-ethyl-7-fluoro-3-hydroxynaphthalen-1-yl)-8-fluoro-4-((IR,5R,6R)-6-hydroxy-3-azabicyclo[3.2.1]octan-3-yl)pyrido[4,3-d]pyrimidin-2-yl)oxy)methyl)cyclopropyl)methyl)-7-azaspiro[3.5]nonan-2-yl)methyl)piperazin-1-yl)-1-oxoisoindolin-2-yl)piperidine-2,6-dione] | > 200 nM | 1 to 10 nM | < 10 nM | –
4 | CCc1c(F)ccc2cc(O)cc(-c3ncc4c(N5CCOCC(C)(O)C5)nc(OCC5(CN6CCC(CN7CCN(c8ccc9c(c8)CN([C@H]8CCC(=O)NC8=O)C9=O)CC7)CC6)CC5)nc4c3F)c12 (stereo partly drawn) [Compound 92, (3S)-3-(5-(4-((1-((1-(((7-(8-ethyl-7-fluoro-3-hydroxynaphthalen-1-yl)-8-fluoro-4-(6-hydroxy-6-methyl-1,4-oxazepan-4-yl)pyrido[4,3-d]pyrimidin-2-yl)oxy)methyl)cyclopropyl)methyl)piperidin-4-yl)methyl)piperazin-1-yl)-1-oxoisoindolin-2-yl)piperidine-2,6-dione] | 20 to 200 nM | 1 to 10 nM | < 10 nM | –
5 | CCc1c(F)ccc2cc(O)cc(-c3ncc4c(N5CCOC[C@@](C)(O)C5)nc(OCC5(CN6CCC(CN7CCN(c8ccc9c(c8)CN([C@H]8CCC(=O)NC8=O)C9=O)CC7)CC6)CC5)nc4c3F)c12 [Compound 104, (3S)-3-[5-[4-[[1-[[1-[[7-(8-ethyl-7-fluoro-3-hydroxy-1-naphthyl)-8-fluoro-4-[(6S)-6-hydroxy-6-methyl-1,4-oxazepan-4-yl]pyrido[4,3-d]pyrimidin-2-yl]oxymethyl]cyclopropyl]methyl]-4-piperidyl]methyl]piperazin-1-yl]-1-oxo-isoindolin-2-yl]piperidine-2,6-dione] | 20 to 200 nM | – | < 10 nM | 2 nM
6 | CCc1c(F)ccc2cc(O)cc(-c3ncc4c(N5CCOC[C@@](C)(O)C5)nc(OCC5(CN6CCC7(CC6)CC(CN6CCN(c8ccc9c(c8)CN([C@H]8CCC(=O)NC8=O)C9=O)CC6)C7)CC5)nc4c3F)c12 [Compound 105, (S)-3-(5-(4-((7-((1-(((7-(8-ethyl-7-fluoro-3-hydroxynaphthalen-1-yl)-8-fluoro-4-((S)-6-hydroxy-6-methyl-1,4-oxazepan-4-yl)pyrido[4,3-d]pyrimidin-2-yl)oxy)methyl)cyclopropyl)methyl)-7-azaspiro[3.5]nonan-2-yl)methyl)piperazin-1-yl)-1-oxoisoindolin-2-yl)piperidine-2,6-dione] | 20 to 200 nM | > 100 nM | > 100 nM | –
7 | CCc1c(F)ccc2cc(O)cc(-c3ncc4c(N5CCCn6nc(C(=O)N(C)C)c(Cl)c6C5)nc(OCC5(CN6CCC(CN7CCN(c8ccc9c(c8)CN([C@H]8CCC(=O)NC8=O)C9=O)CC7)CC6)CC5)nc4c3F)c12 [Compound 108, (S)-3-chloro-5-(2-((1-((4-((4-(2-(2,6-dioxopiperidin-3-yl)-1-oxoisoindolin-5-yl)piperazin-1-yl)methyl)piperidin-1-yl)methyl)cyclopropyl)methoxy)-7-(8-ethyl-7-fluoro-3-hydroxynaphthalen-1-yl)-8-fluoropyrido[4,3-d]pyrimidin-4-yl)-N,N-dimethyl-5,6,7,8-tetrahydro-4H-pyrazolo[1,5-a][1,4]diazepine-2-carboxamide] | > 200 nM | 1 to 10 nM | < 10 nM | –
8 | CCc1cccc2cc(O)cc(-c3ncc4c(N5CCCOCC5)nc(OCC5(CN6CCC7(CC6)CC(CN6CCN(c8ccc9c(c8)CN([C@H]8CCC(=O)NC8=O)C9=O)CC6)C7)CC5)nc4c3F)c12 [Compound 109, (S)-3-(5-(4-((7-((1-(((7-(8-ethyl-3-hydroxynaphthalen-1-yl)-8-fluoro-4-(1,4-oxazepan-4-yl)pyrido[4,3-d]pyrimidin-2-yl)oxy)methyl)cyclopropyl)methyl)-7-azaspiro[3.5]nonan-2-yl)methyl)piperazin-1-yl)-1-oxoisoindolin-2-yl)piperidine-2,6-dione] | > 200 nM | > 100 nM | > 100 nM | –
9 | CCc1cccc2cc(O)cc(-c3ncc4c(N5CCCOCC5)nc(OCC5(CN6CCC(CN7CCN(c8ccc9c(c8)CN([C@H]8CCC(=O)NC8=O)C9=O)CC7)CC6)CC5)nc4c3F)c12 [Compound 110, (S)-3-(5-(4-((1-((1-(((7-(8-ethyl-3-hydroxynaphthalen-1-yl)-8-fluoro-4-(1,4-oxazepan-4-yl)pyrido[4,3-d]pyrimidin-2-yl)oxy)methyl)cyclopropyl)methyl)piperidin-4-yl)methyl)piperazin-1-yl)-1-oxoisoindolin-2-yl)piperidine-2,6-dione] | > 200 nM | > 100 nM | > 100 nM | –
10 | CCc1c(F)ccc2cc(O)cc(-c3ncc4c(N5CCC(O)CC5)nc(OCC5(CN6CCC7(CC6)CC(CN6CCN(c8ccc9c(c8)CN([C@H]8CCC(=O)NC8=O)C9=O)CC6)C7)CC5)nc4c3F)c12 [Compound 114, (S)-3-(5-(4-((7-((1-(((7-(8-ethyl-7-fluoro-3-hydroxynaphthalen-1-yl)-8-fluoro-4-(4-hydroxypiperidin-1-yl)pyrido[4,3-d]pyrimidin-2-yl)oxy)methyl)cyclopropyl)methyl)-7-azaspiro[3.5]nonan-2-yl)methyl)piperazin-1-yl)-1-oxoisoindolin-2-yl)piperidine-2,6-dione] | > 200 nM | > 100 nM | > 100 nM | –
11 | CCc1c(F)ccc2cc(O)cc(-c3ncc4c(N5CCC(O)CC5)nc(OCC5(CN6CCC(CN7CCN(c8ccc9c(c8)CN([C@H]8CCC(=O)NC8=O)C9=O)CC7)CC6)CC5)nc4c3F)c12 [Compound 115, (S)-3-(5-(4-((1-((1-(((7-(8-ethyl-7-fluoro-3-hydroxynaphthalen-1-yl)-8-fluoro-4-(4-hydroxypiperidin-1-yl)pyrido[4,3-d]pyrimidin-2-yl)oxy)methyl)cyclopropyl)methyl)piperidin-4-yl)methyl)piperazin-1-yl)-1-oxoisoindolin-2-yl)piperidine-2,6-dione] | > 200 nM | > 100 nM | > 100 nM | –
12 | CCc1c(F)ccc2cc(O)cc(-c3ncc4c(N5CCC[C@@H](O)CC5)nc(OCC5(CN6CCC7(CC6)CC(CN6CCN(c8ccc9c(c8)CN([C@H]8CCC(=O)NC8=O)C9=O)CC6)C7)CC5)nc4c3F)c12 [Compound 116, (S)-3-(5-(4-((7-((1-(((7-(8-ethyl-7-fluoro-3-hydroxynaphthalen-1-yl)-8-fluoro-4-((R)-4-hydroxyazepan-1-yl)pyrido[4,3-d]pyrimidin-2-yl)oxy)methyl)cyclopropyl)methyl)-7-azaspiro[3.5]nonan-2-yl)methyl)piperazin-1-yl)-1-oxoisoindolin-2-yl)piperidine-2,6-dione] | > 200 nM | 1 to 10 nM | > 100 nM | –
13 | CCc1c(F)ccc2cc(O)cc(-c3ncc4c(N5CCC[C@@H](O)CC5)nc(OCC5(CN6CCC(CN7CCN(c8ccc9c(c8)CN([C@H]8CCC(=O)NC8=O)C9=O)CC7)CC6)CC5)nc4c3F)c12 [Compound 117, (S)-3-(5-(4-((1-((1-(((7-(8-ethyl-7-fluoro-3-hydroxynaphthalen-1-yl)-8-fluoro-4-((R)-4-hydroxyazepan-1-yl)pyrido[4,3-d]pyrimidin-2-yl)oxy)methyl)cyclopropyl)methyl)piperidin-4-yl)methyl)piperazin-1-yl)-1-oxoisoindolin-2-yl)piperidine-2,6-dione] | > 200 nM | 1 to 10 nM | > 100 nM | –
